## CN(C/C=C/C#CC(C)(C)C)Cc1cccc2ccccc12.Cl
In ethanol, 278.15 K
  solubility (mole fraction): 0.0187
In ethanol, 280.65 K
  solubility (mole fraction): 0.0197
In ethanol, 283.15 K
  solubility (mole fraction): 0.0207
In ethanol, 285.65 K
  solubility (mole fraction): 0.0217
In ethanol, 288.15 K
  solubility (mole fraction): 0.0229
In ethanol, 290.65 K
  solubility (mole fraction): 0.0241
In ethanol, 293.15 K
  solubility (mole fraction): 0.0254
In ethanol, 295.65 K
  solubility (mole fraction): 0.0266
In ethanol, 298.15 K
  solubility (mole fraction): 0.0279
In ethanol, 300.65 K
  solubility (mole fraction): 0.0293
In ethanol, 303.15 K
  solubility (mole fraction): 0.0309
In ethanol, 305.65 K
  solubility (mole fraction): 0.0326
In ethanol, 308.15 K
  solubility (mole fraction): 0.0342
In ethanol, 310.65 K
  solubility (mole fraction): 0.036
In ethanol, 313.15 K
  solubility (mole fraction): 0.0379
In ethyl acetate, 278.15 K
  solubility (mole fraction): 0.0022
In ethyl acetate, 280.65 K
  solubility (mole fraction): 0.00255
In ethyl acetate, 283.15 K
  solubility (mole fraction): 0.00304
In ethyl acetate, 285.65 K
  solubility (mole fraction): 0.0036
In ethyl acetate, 288.15 K
  solubility (mole fraction): 0.00417
In ethyl acetate, 290.65 K
  solubility (mole fraction): 0.00482
In ethyl acetate, 293.15 K
  solubility (mole fraction): 0.00557
In ethyl acetate, 295.65 K
  solubility (mole fraction): 0.00626
In ethyl acetate, 298.15 K
  solubility (mole fraction): 0.00715
In ethyl acetate, 300.65 K
  solubility (mole fraction): 0.00821
In ethyl acetate, 303.15 K
  solubility (mole fraction): 0.00919
In ethyl acetate, 305.65 K
  solubility (mole fraction): 0.0105
In ethyl acetate, 308.15 K
  solubility (mole fraction): 0.0119
In ethyl acetate, 310.65 K
  solubility (mole fraction): 0.0133
In ethyl acetate, 313.15 K
  solubility (mole fraction): 0.015
In methanol, 278.15 K
  solubility (mole fraction): 0.0398
In methanol, 280.65 K
  solubility (mole fraction): 0.0411
In methanol, 283.15 K
  solubility (mole fraction): 0.0424
In methanol, 285.65 K
  solubility (mole fraction): 0.0439
In methanol, 288.15 K
  solubility (mole fraction): 0.0453
In methanol, 290.65 K
  solubility (mole fraction): 0.047
In methanol, 293.15 K
  solubility (mole fraction): 0.0486
In methanol, 295.65 K
  solubility (mole fraction): 0.0502
In methanol, 298.15 K
  solubility (mole fraction): 0.0518
In methanol, 300.65 K
  solubility (mole fraction): 0.0536
In methanol, 303.15 K
  solubility (mole fraction): 0.0554
In methanol, 305.65 K
  solubility (mole fraction): 0.0572
In methanol, 308.15 K
  solubility (mole fraction): 0.059
In methanol, 310.65 K
  solubility (mole fraction): 0.061
In methanol, 313.15 K
  solubility (mole fraction): 0.063
In n-propanol, 278.15 K
  solubility (mole fraction): 0.0187
In n-propanol, 280.65 K
  solubility (mole fraction): 0.0193
In n-propanol, 283.15 K
  solubility (mole fraction): 0.02
In n-propanol, 285.65 K
  solubility (mole fraction): 0.0206
In n-propanol, 288.15 K
  solubility (mole fraction): 0.0214
In n-propanol, 290.65 K
  solubility (mole fraction): 0.0221
In n-propanol, 293.15 K
  solubility (mole fraction): 0.0228
In n-propanol, 295.65 K
  solubility (mole fraction): 0.0237
In n-propanol, 298.15 K
  solubility (mole fraction): 0.0245
In n-propanol, 300.65 K
  solubility (mole fraction): 0.0254
In n-propanol, 303.15 K
  solubility (mole fraction): 0.0262
In n-propanol, 305.65 K
  solubility (mole fraction): 0.0271
In n-propanol, 308.15 K
  solubility (mole fraction): 0.028
In n-propanol, 310.65 K
  solubility (mole fraction): 0.0291
In n-propanol, 313.15 K
  solubility (mole fraction): 0.0301

— BigSolDB 2.1
